Measured values as given in PMC10712727, “Safety, Tolerability, and Pharmacokinetics of Senaparib, a Novel PARP1/2 Inhibitor, in Chinese Patients With Advanced Solid Tumors: A Phase I Trial” (The Oncologist, 2023).

Tested on: patients with advanced solid tumors
Experiment: Safety: treatment-emergent and senaparib-related adverse events graded per NCI CTCAE v4.03
Type: in vivo
Experimental: This phase I, open-label, multicenter, dose-escalation, and dose-expansion study was conducted at three national clinical institutions in China. […] At baseline, all patients enrolled in the dose-escalation phase had to have at least one evaluable lesion, and those in the dose-expansion period had to have at least one measurable lesion, according to Response Evaluation Criteria in Solid Tumors version 1.1 (RECIST v1.1).[16] Entry to the dose-expansion cohort required the presence of a BRCA mutation, with the exception of patients with ovarian carcinoma, fallopian tube carcinoma, and primary peritoneal carcinoma. Full study eligibility criteria are provided in Supplementary Table S1.
Dose escalation was conducted using a modified Fibonacci 3 + 3 method (Supplementary Fig. S1).[17] Patients were administered oral senaparib from a planned starting dose of 2 mg once daily (QD), with preliminary dose escalation to 120 mg via nine dose groups, in order of their entry into the study. At a given dose level, each patient received a single dose of senaparib followed by a 7-day washout period. They then entered a continuous dosing period to confirm the safety and PK profile, in which they received senaparib QD from day 1 to day 21 of each 3-week cycle. Progression to the next higher dose required approval from the Data Safety Monitoring Committee (DSMC) upon review of the safety and PK data of the previous dose. A 50-mg twice-daily (BID) dosing group was added (planned enrollment, n = 6 patients) based on a DSMC review of the safety, PK, and efficacy analysis of the completed QD dose groups in the phase I clinical trial of senaparib dose escalation in Australia (NCT03507543), which commenced prior to the start of this trial.
The dose-expansion period included 3 populations: dose groups in which at least one patient achieved complete response (CR) or partial response (PR) per RECIST v1.1[16] and 1 dose group higher (evaluated for safety), as well as the dose group at the maximum tolerated dose (MTD)/recommended phase II dose (RP2D). Each of these groups included those patients in the respective dose-escalation group plus a planned additional 10 patients (approximately 20 patients in the MTD/RP2D group) with BRCA^mut+ solid tumors (ovarian, breast, or prostate cancer were preferred, and ovarian cancer could be BRCA wild type). Patients received senaparib monotherapy orally QD or BID (50-mg dose only) over each 3-week cycle until disease progression or unacceptable toxicity.
DLTs were predefined toxicities (Supplementary Table S2) recorded over the 7 days following the single-dose administration of senaparib and during the first treatment cycle (day 1-day 21) for each dose group in the dose-escalation period only. The MTD was defined as the maximum dose at which ≤1/6 patients experienced a DLT. Senaparib PK parameters were derived from blood samples collected from patients after the single administration, and at regular intervals during the first cycle of the dose-escalation and dose-expansion periods. Plasma concentrations of senaparib were determined using high-performance liquid chromatography-tandem mass spectrometry. Tumor response was assessed every 6 weeks per RECIST v1.1,[16] recording objective response rate (ORR), disease control rate (DCR), duration of response (DOR), and progression-free survival (PFS) by dose level for all patients and for those harboring BRCA^mut+ tumors.

O=C(c1cc(Cn2c(=O)[nH]c(=O)c3c(F)cccc32)ccc1F)N1CCN(c2ncccn2)CC1 [Senaparib]
Appetite decreased TRAE, All (80 mg QD n = 9): 3 (33.3) n (%) | Appetite decreased TRAE, Gr≥3 (80 mg QD n = 9): 0 n (%) | Asthenia TRAE, All (80 mg QD n = 9): 2 (22.2) n (%) | Asthenia TRAE, Gr≥3 (80 mg QD n = 9): 0 n (%) | Blood bilirubin increased TRAE, All (80 mg QD n = 9): 2 (22.2) n (%) | Blood bilirubin increased TRAE, Gr≥3 (80 mg QD n = 9): 0 n (%) | Blood creatinine increased TRAE, All (80 mg QD n = 9): 2 (22.2) n (%) | Blood creatinine increased TRAE, Gr≥3 (80 mg QD n = 9): 0 n (%) | Hypokalemia TRAE, All (80 mg QD n = 9): 3 (33.3) n (%) | Nausea TRAE, All (80 mg QD n = 9): 4 (44.4) n (%) | Nausea TRAE, Gr≥3 (80 mg QD n = 9): 0 n (%) | Neutrophil count decreased TRAE, All (80 mg QD n = 9): 4 (44.4) n (%) | Neutrophil count decreased TRAE, Gr≥3 (80 mg QD n = 9): 1 (11.1) n (%) | Platelet count decreased TRAE, All (80 mg QD n = 9): 4 (44.4) n (%) | Platelet count decreased TRAE, Gr≥3 (80 mg QD n = 9): 2 (22.2) n (%) | SAEs, events (80 mg QD n = 9): 5 n ev | SAEs, patients (80 mg QD n = 9): 5 (55.6) n (%) | TEAE Grade ≥3, events (80 mg QD n = 9): 12 n ev | TEAE Grade ≥3, patients (80 mg QD n = 9): 6 (66.7) n (%) | TEAEs leading to death, events (80 mg QD n = 9): 1 n ev | TEAEs leading to death, patients (80 mg QD n = 9): 1 (11.1) n (%) | TEAEs leading to dose discontinuation, events (80 mg QD n = 9): 4 n ev | TEAEs leading to dose discontinuation, patients (80 mg QD n = 9): 1 (11.1) n (%) | TEAEs leading to dose interruption, events (80 mg QD n = 9): 9 n ev | TEAEs leading to dose interruption, patients (80 mg QD n = 9): 4 (44.4) n (%) | TEAEs leading to dose reduction, events (80 mg QD n = 9): 3 n ev | TEAEs leading to dose reduction, patients (80 mg QD n = 9): 3 (33.3) n (%) | TRAEs Grade ≥3, events (80 mg QD n = 9): 10 n ev | TRAEs Grade ≥3, patients (80 mg QD n = 9): 5 (55.6) n (%) | TRAEs, events (80 mg QD n = 9): 109 n ev | TRAEs, patients (80 mg QD n = 9): 9 (100) n (%) | Vomiting TRAE, All (80 mg QD n = 9): 2 (22.2) n (%) | Vomiting TRAE, Gr≥3 (80 mg QD n = 9): 1 (11.1) n (%) | WBC decreased TRAE, All (80 mg QD n = 9): 5 (55.6) n (%) | WBC decreased TRAE, Gr≥3 (80 mg QD n = 9): 1 (11.1) n (%) | ALT increased TRAE, All (100 mg QD n = 20): 5 (25.0) n (%) | ALT increased TRAE, Gr≥3 (100 mg QD n = 20): 0 n (%) | AST increased TRAE, All (100 mg QD n = 20): 4 (20.0) n (%) | AST increased TRAE, Gr≥3 (100 mg QD n = 20): 1 (5.0) n (%) | Anemia TRAE, All (100 mg QD n = 20): 11 (55.0) n (%) | Anemia TRAE, Gr≥3 (100 mg QD n = 20): 4 (20.0) n (%) | Any TEAE, All (100 mg QD n = 20): 20 (100) n (%) | Any TEAE, Gr≥3 (100 mg QD n = 20): 7 (35.0) n (%) | Any TEAE, events (100 mg QD n = 20): 158 n ev | Any TEAE, patients (100 mg QD n = 20): 20 (100) n (%) | Any TRAE, All (100 mg QD n = 20): 20 (100) n (%) | Any TRAE, Gr≥3 (100 mg QD n = 20): 7 (35.0) n (%) | Appetite decreased TRAE, All (100 mg QD n = 20): 5 (25.0) n (%) | Appetite decreased TRAE, Gr≥3 (100 mg QD n = 20): 0 n (%) | Asthenia TRAE, All (100 mg QD n = 20): 5 (25.0) n (%) | Asthenia TRAE, Gr≥3 (100 mg QD n = 20): 0 n (%) | Blood bilirubin increased TRAE, All (100 mg QD n = 20): 3 (15.0) n (%) | Blood bilirubin increased TRAE, Gr≥3 (100 mg QD n = 20): 0 n (%) | Blood creatinine increased TRAE, All (100 mg QD n = 20): 2 (10.0) n (%) | Blood creatinine increased TRAE, Gr≥3 (100 mg QD n = 20): 0 n (%) | Hypokalemia TRAE, All (100 mg QD n = 20): 0 n (%) | Hypokalemia TRAE, Gr≥3 (100 mg QD n = 20): 0 n (%) | Nausea TRAE, All (100 mg QD n = 20): 4 (20.0) n (%) | Nausea TRAE, Gr≥3 (100 mg QD n = 20): 0 n (%) | Neutrophil count decreased TRAE, All (100 mg QD n = 20): 5 (25.0) n (%) | Neutrophil count decreased TRAE, Gr≥3 (100 mg QD n = 20): 2 (10.0) n (%) | Platelet count decreased TRAE, All (100 mg QD n = 20): 6 (30.0) n (%) | Platelet count decreased TRAE, Gr≥3 (100 mg QD n = 20): 1 (5.0) n (%) | SAEs, events (100 mg QD n = 20): 1 n ev | SAEs, patients (100 mg QD n = 20): 1 (5.0) n (%) | TEAE Grade ≥3, events (100 mg QD n = 20): 9 n ev | TEAE Grade ≥3, patients (100 mg QD n = 20): 7 (35.0) n (%) | TEAEs leading to death, events (100 mg QD n = 20): 0 n ev | TEAEs leading to death, patients (100 mg QD n = 20): 0 n (%) | TEAEs leading to dose discontinuation, events (100 mg QD n = 20): 1 n ev | TEAEs leading to dose discontinuation, patients (100 mg QD n = 20): 1 (5.0) n (%) | TEAEs leading to dose interruption, events (100 mg QD n = 20): 8 n ev | TEAEs leading to dose interruption, patients (100 mg QD n = 20): 6 (30.0) n (%) | TEAEs leading to dose reduction, events (100 mg QD n = 20): 6 n ev | TEAEs leading to dose reduction, patients (100 mg QD n = 20): 4 (20.0) n (%) | TRAEs Grade ≥3, events (100 mg QD n = 20): 9 n ev | TRAEs Grade ≥3, patients (100 mg QD n = 20): 7 (35.0) n (%) | TRAEs, events (100 mg QD n = 20): 144 n ev | TRAEs, patients (100 mg QD n = 20): 20 (100) n (%) | Vomiting TRAE, All (100 mg QD n = 20): 5 (25.0) n (%) | Vomiting TRAE, Gr≥3 (100 mg QD n = 20): 0 n (%) | WBC decreased TRAE, All (100 mg QD n = 20): 9 (45.0) n (%) | WBC decreased TRAE, Gr≥3 (100 mg QD n = 20): 1 (5.0) n (%) | ALT increased TRAE, All (120 mg QD n = 4): 2 (50.0) n (%) | ALT increased TRAE, Gr≥3 (120 mg QD n = 4): 1 (25.0) n (%) | AST increased TRAE, All (120 mg QD n = 4): 2 (50.0) n (%) | AST increased TRAE, Gr≥3 (120 mg QD n = 4): 0 n (%) | Anemia TRAE, All (120 mg QD n = 4): 3 (75.0) n (%) | Anemia TRAE, Gr≥3 (120 mg QD n = 4): 1 (25.0) n (%) | Any TEAE, All (120 mg QD n = 4): 4 (100) n (%) | Any TEAE, Gr≥3 (120 mg QD n = 4): 3 (75.0) n (%) | Any TEAE, events (120 mg QD n = 4): 52 n ev | Any TEAE, patients (120 mg QD n = 4): 4 (100) n (%) | Any TRAE, All (120 mg QD n = 4): 4 (100) n (%) | Any TRAE, Gr≥3 (120 mg QD n = 4): 3 (75.0) n (%) | Appetite decreased TRAE, All (120 mg QD n = 4): 1 (25.0) n (%) | Appetite decreased TRAE, Gr≥3 (120 mg QD n = 4): 0 n (%) | Asthenia TRAE, All (120 mg QD n = 4): 2 (50.0) n (%) | Asthenia TRAE, Gr≥3 (120 mg QD n = 4): 0 n (%) | Blood bilirubin increased TRAE, All (120 mg QD n = 4): 2 (50.0) n (%) | Blood bilirubin increased TRAE, Gr≥3 (120 mg QD n = 4): 1 (25.0) n (%) | Blood creatinine increased TRAE, All (120 mg QD n = 4): 1 (25.0) n (%) | Blood creatinine increased TRAE, Gr≥3 (120 mg QD n = 4): 0 n (%) | Hypokalemia TRAE, All (120 mg QD n = 4): 0 n (%) | Hypokalemia TRAE, Gr≥3 (120 mg QD n = 4): 0 n (%) | Nausea TRAE, All (120 mg QD n = 4): 1 (25.0) n (%) | Nausea TRAE, Gr≥3 (120 mg QD n = 4): 0 n (%) | Neutrophil count decreased TRAE, All (120 mg QD n = 4): 1 (25.0) n (%) | Neutrophil count decreased TRAE, Gr≥3 (120 mg QD n = 4): 0 n (%) | Platelet count decreased TRAE, All (120 mg QD n = 4): 1 (25.0) n (%) | Platelet count decreased TRAE, Gr≥3 (120 mg QD n = 4): 0 n (%) | SAEs, events (120 mg QD n = 4): 1 n ev | SAEs, patients (120 mg QD n = 4): 1 (25.0) n (%) | TEAE Grade ≥3, events (120 mg QD n = 4): 6 n ev | TEAE Grade ≥3, patients (120 mg QD n = 4): 3 (75.0) n (%) | TEAEs leading to death, events (120 mg QD n = 4): 0 n ev
